This note sets out measurements from US11332455B2, “α,β-unsaturated amide compound” (KYOWA KIRIN CO., LTD., priority 2015, dated 2022).

Assay in all cases: Cell growth inhibitory effect, cell counting kit 8, 6 days
What all share (assay type): cell-based

For experiment [1], the system named is HuH28, a human liver cancer cell line. To be noted: 144 h, HuH28 cells, 6 days incubation. Put shortly:
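HuH28 human liver cancer cells (JCRB0426) were maintained below 80% density in RPMI1640 with 10% FBS and grown in 96-well flat-bottom plates. Test compound was serially diluted to 5 times final concentration and added with DMSO at 0.1%, then incubated for 6 days at 37° C in 5% CO2. Viable cells were counted with cell counting kit 8 at dosing and on day 6, using a 2 or 3 hour color reaction and absorbance at 450 nm. GI50 was derived from growth inhibition rates.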

In experiment [2] the test system is NCI-H226 cells, a human mesothelioma cell line. The following applies: 144 h, 6 days incubation. In outline: (§1)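 Cells grown in RPMI1640 with 10% FBS, plated at 500 cells/well (NCI-H226, NCI-H322) and incubated one day before serially diluted compound was added (0.1% DMSO final). After 6 days at 37 °C, 5% CO2, CCK-8 colour developed 2–3 h and A450 read; GI50 derived from growth inhibition rate.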

Experiment [3] relates to NCI-H322 cells, a human lung cancer cell line. To be noted: 144 h, 6 days incubation. Put shortly: as §1
[4] abbreviates: group 100 nmol/L to 1 μmol/L (upper bound given in μmol/L).

The structures appear in SMILES notation. Where only a bound is given, the exact number is not on record here.

What is called GI50 is the concentration that inhibits growth by half. Lower therefore signals more potent growth inhibition. As for `C=CC(=O)NCc1cc(Oc2ccnc(Cl)c2)nc2ccccc12` [Compound 150, N-([2-{(2-Chloropyridin-4-yl)oxy}quinolin-4-yl]methyl)acrylamide], the GI50 in experiment [1] was less than 3000 nM; in experiment [2] (group less than 100 nmol/L), less than 100 nM; in experiment [3], less than 1000 nM.

Take `C=CC(=O)NCc1cc(Oc2ccnc(C(F)(F)F)c2)nc2ccccc12` [Compound 151, N-{(2-[{2-(Trifluoromethyl)pyridin-4-yl}oxy]quinolin-4-yl)methyl}acrylamide]: the figures for the GI50 in experiment [1], in experiment [2] (group less than 100 nmol/L) and in experiment [3] were less than 3000 nM, less than 100 nM and less than 1000 nM, respectively.

With `C=CC(=O)NC1COc2c(cccc2Oc2cnc(C(F)(F)F)nc2)C1` (stereo not drawn) [Compound 155, N-(8-[{2-(Trifluoromethyl)pyrimidin-5-yl}oxy]chroman-3-yl)acrylamide], the GI50 in experiment [1] was less than 3000 nM; in experiment [2] (group less than 100 nmol/L), less than 100 nM; in experiment [3], less than 1000 nM.

On to `C=CC(=O)NC1CCOc2c1ccc(Oc1ccc(F)c(F)c1)c2OC` (stereo not drawn) [Compound 164, N-{7-(3,4-Difluorophenoxy)-8-methoxychroman-4-yl}acrylamide], for which the results for the GI50 in experiment [1], in experiment [2] (setting [4]) and in experiment [3] were less than 3000 nM, 100 to 1000 nM and less than 1000 nM, respectively.

Take `C=CC(=O)NC1CCOc2c1ccc(Oc1ccc(C(F)(F)F)nc1)c2Cl` (stereo not drawn) [Compound 168, N-(8-Chloro-7-[{6-(trifluoromethyl)pyridin-3-yl}oxy]chroman-4-yl)acrylamide]: the GI50 was less than 3000 nM in experiment [1], less than 100 nM in experiment [2] (group less than 100 nmol/L) and less than 1000 nM in experiment [3].

`C=CC(=O)NC1CCOc2c1ccc(Oc1ccc(C(F)(F)F)nc1)c2Br` (stereo not drawn) [Compound 169, N-(8-Bromo-7-[{6-(trifluoromethyl)pyridin-3-yl}oxy]chroman-4-yl)acrylamide]: the GI50 in experiment [1] was less than 3000 nM; in experiment [2] (group less than 100 nmol/L), less than 100 nM; in experiment [3] it was less than 1000 nM.

For `C=CC(=O)NCc1ccc(Oc2ccc(Cl)cc2)c2c1CCCO2` [Compound 176, N-[{8-(4-Chlorophenoxy)chroman-5-yl}methyl]acrylamide], the results for the GI50 in experiment [1], in experiment [2] (group less than 100 nmol/L) and in experiment [3] were less than 3000 nM, less than 100 nM and less than 1000 nM, respectively.

Turning to `Nc1cncc(OCC2CCC(F)(F)CC2)c1` [Compound 192, 5-[(4,4-Difluorocyclohexyl)methoxy]pyridin-3-amine], the figures for the GI50 in experiment [1], in experiment [2] (setting [4]) and in experiment [3] were less than 3000 nM, 100 to 1000 nM and less than 1000 nM, respectively.

Regarding `C=CC(=O)NCc1ccc(Oc2ccc(C(F)(F)F)cc2)c2ncc(C)cc12` [Compound 199, N-([3-Methyl-8-{4-(trifluoromethyl)phenoxy}quinolin-5-yl]methyl)acrylamide], the figures for the GI50 in experiment [1], in experiment [2] (group less than 100 nmol/L) and in experiment [3] were less than 3000 nM, less than 100 nM and less than 1000 nM, respectively.

On to `C=CC(=O)NCc1ccc(Oc2ccc(C(F)(F)F)nc2)c2ncc(C)cc12` [Compound 200, N-{(3-Methyl-8-[{6-(trifluoromethyl)pyridin-3-yl}oxy]quinolin-5-yl)methyl}acrylamide], for which the concentration for 50% growth inhibition (GI50) is less than 3000 nM in experiment [1], less than 100 nM in experiment [2] (group less than 100 nmol/L) and less than 1000 nM in experiment [3].

Take `C=CC(=O)NCc1ccc(Oc2ccc(C(F)(F)F)cc2)c2nccc(C)c12` [Compound 201, N-([4-Methyl-8-{4-(trifluoromethyl)phenoxy}quinolin-5-yl]methyl)acrylamide]: the GI50 is less than 3000 nM in experiment [1], less than 100 nM in experiment [2] (group less than 100 nmol/L) and less than 1000 nM in experiment [3].

On to `C=CC(=O)NCc1ccc(Sc2ccc(C(F)(F)F)cc2)c2ncccc12` [Compound 202, N-{(8-[{4-(Trifluoromethyl)phenyl}thio]quinolin-5-yl)methyl}acrylamide], for which the values for the GI50 in experiment [1], in experiment [2] (group less than 100 nmol/L) and in experiment [3] were less than 3000 nM, less than 100 nM and less than 1000 nM, respectively.

For `C=CC(=O)NCc1ccc(Nc2ccc(C(F)(F)F)cc2)c2ncccc12` [Compound 203, N-{(8-[{4-(Trifluoromethyl)phenyl}amino]quinolin-5-yl)methyl}acrylamide], the GI50 in experiment [1] is less than 3000 nM; in experiment [2] (group less than 100 nmol/L) it was less than 100 nM; in experiment [3], less than 1000 nM.

With `C=CC(=O)NCc1ccc(C(O)c2ccc(C(F)(F)F)cc2)c2ncccc12` (stereo not drawn) [Compound 206, N-{(8-[Hydroxy{4-(trifluoromethyl)phenyl}methyl]quinolin-5-yl)methyl}acrylamide], the GI50 in experiment [1] was less than 3000 nM; in experiment [2] (setting [4]), 100 to 1000 nM; in experiment [3], less than 1000 nM.

For the compound `C=CC(=O)NCc1ccc(C(=O)c2ccc(C(F)(F)F)cc2)c2ncccc12` [Compound 208, N-([8-{4-(Trifluoromethyl)benzoyl}quinolin-5-yl]methyl)acrylamide], the GI50 was less than 3000 nM in experiment [1], 100 to 1000 nM in experiment [2] (setting [4]) and less than 1000 nM in experiment [3].

Take `C=CC(=O)NCc1ccc(Cc2ccc(C(F)(F)F)cc2)c2ncccc12` [Compound 211, N-([8-{4-(Trifluoromethyl)benzyl}quinolin-5-yl]methyl)acrylamide]: the concentration for 50% growth inhibition (GI50) was less than 3000 nM in experiment [1], less than 100 nM in experiment [2] (group less than 100 nmol/L) and less than 1000 nM in experiment [3].

Regarding `C=CC(=O)NCc1ccc(Oc2ccc(C(F)(F)F)cc2)c2nc(C)ccc12` [Compound 212, N-([2-Methyl-8-{4-(trifluoromethyl)phenoxy}quinolin-5-yl]methyl)acrylamide], the GI50 in experiment [1] is less than 3000 nM; in experiment [2] (group less than 100 nmol/L) it was less than 100 nM; in experiment [3], less than 1000 nM.

`C=CC(=O)NCc1cnc(Oc2ccc(C(F)(F)F)cc2)c2ccccc12` [Compound 222, N-([1-{4-(Trifluoromethyl)phenoxy}isoquinolin-4-yl]methyl)acrylamide]: the figures for the GI50 in experiment [1], in experiment [2] (group less than 100 nmol/L) and in experiment [3] were less than 3000 nM, less than 100 nM and less than 1000 nM, respectively.

For the compound `C=CC(=O)NCc1ccc(Oc2ccc(C(F)(F)F)cc2)c2cnccc12` [Compound 223, N-([8-{4-(Trifluoromethyl)phenoxy}isoquinolin-5-yl]methyl)acrylamide], the GI50 is less than 3000 nM in experiment [1], less than 100 nM in experiment [2] (group less than 100 nmol/L) and less than 1000 nM in experiment [3].

Consider `C=CC(=O)NCc1ncc(Oc2ccc(C(F)(F)F)cc2)c2ccccc12` [Compound 224, N-([4-{4-(Trifluorophenyl)phenoxy}isoquinolin-1-yl]methyl)acrylamide], for which the GI50 in experiment [1] was less than 3000 nM; in experiment [2] (group less than 100 nmol/L), less than 100 nM; in experiment [3] it was less than 1000 nM.

Turning to `C=CC(=O)NCc1ccc(Oc2ccc(C(F)(F)F)cc2)c2ccncc12` [Compound 225, N-([5-{4-(Trifluoromethyl)phenoxy}isoquinolin-8-yl]methyl)acrylamide], the GI50 in experiment [1] is less than 3000 nM; in experiment [2] (group less than 100 nmol/L), less than 100 nM; in experiment [3] it was less than 1000 nM.

For `C=CC(=O)Nc1cnc(Oc2ccc(Cl)cc2)c2ncccc12` [Compound 226, N-{8-(4-chlorophenoxy)-1,7-naphthyridin-5-yl}acrylamide], the figures for the GI50 in experiment [1], in experiment [2] (group less than 100 nmol/L) and in experiment [3] were less than 3000 nM, less than 100 nM and less than 1000 nM, respectively.

Consider `C=CC(=O)NCc1cnc(Oc2ccc(Cl)cc2)c2ncccc12` [Compound 227, N-[{8-(4-Chlorophenoxy)-1,7-naphthyridin-5-yl}methyl]acrylamide], for which the GI50 in experiment [1] was less than 3000 nM; in experiment [2] (group less than 100 nmol/L), less than 100 nM; in experiment [3] it was less than 1000 nM.
